Data published in BindingDB's records for doi:10.1016/S0960-894X(01)80987-2 (1993).
pIC50: −log10 of the molar value.

Experiment: In vitro test for inhibition of [125I]CCK binding to Cholecystokinin type B receptor from guinea pig cortical membranes was determined

Row | SMILES | pIC50
1 | Cc1cccc(NC(=O)NC2N=C(C3CCC3)c3ccccc3N(C)C2=O)c1 (stereo not drawn) [1-(5-Cyclobutyl-1-methyl-2-oxo-2,3-dihydro-1H-benzo[e][1,4]diazepin-3-yl)-3-m-tolyl-urea] | 7.52
2 | Cc1cccc(NC(=O)NC2N=C(C3CCCC3)c3ccccc3N(C)C2=O)c1 (stereo not drawn) [1-(5-Cyclopentyl-1-methyl-2-oxo-2,3-dihydro-1H-benzo[e][1,4]diazepin-3-yl)-3-m-tolyl-urea] | 7.80
3 | Cc1cccc(NC(=O)N[C@H]2N=C(C3CCCCC3)c3ccccc3N(C)C2=O)c1 [1-((S)-5-Cyclohexyl-1-methyl-2-oxo-2,3-dihydro-1H-benzo[e][1,4]diazepin-3-yl)-3-m-tolyl-urea] | 6.77
